# Read-outs that look alike come from different tables or passages of the source. Peptide text beside a SMILES is read from it.
# How the values were obtained:
# PSD-95 PDZ2 [1] = biological target: T1, PSD-95 PDZ2 (Homo sapiens, UniProt P78352); experiment: FP competition assay, PSD-95 PDZ2 (probe Cy5-GluN2B); format: binding; details: read-out: K i PDZ2
# T1 construct: PDZ2 (aa 155–249); made in house; host or cells: E. coli One Shot BL21 Star (DE3)
# Protocol: (§4) FP measurements were performed in black, flat bottom 384-well NBS microplates (Corning) on a Synergy H4 microplatereader (BioTek Instruments) equipped with a 620/40 nm excitation filter, a 680/30 nm emission filter, and a 660 nm dichroic mirror. Polarization values were corrected with blank samples and samples with fluorescent probe alone. At least 10 data points were measured for each curve, and each data point was measured in triplicate. […] All FP measurements were performed in a buffer containing 10 mM HEPES pH 7.4, 150 mM NaCl, and 1% BSA and incubated at least 15 min at room temperature before reading. The signal was stable for more than an hour, showing that the reaction was at equilibrium.
# (§5) For the competition binding curves, probe was mixed with a constant concentration of PDZ protein corresponding to the K d and a twofold dilution series of unlabeled peptide in a total volume of 30 µl. The baseline was determined using a sample containing only probe. The IC50 was determined by fitting to a 1∶1 binding model: Y = Ymax − Ymax × X/(X+IC50). The K i was calculated from the IC50 and from the K d for the interaction between the PDZ protein and the probe as described previously [38].
# PSD-95 PDZ1 [2] = biological target: T2, PSD-95 PDZ1 (Homo sapiens, UniProt P78352); experiment: SPR steady-state binding to immobilized PSD-95 PDZ1
# T2 construct: PSD-95 PDZ1 (aa 61–151); made in house; host or cells: E. coli One Shot BL21 Star (DE3)
# Description: (§1) To confirm the affinities measured by FP using an orthogonal method and to get information about the kinetics of the GPCR–PDZ interactions, we used SPR. This label-free, surface sensitive technique measures the binding of a ligand to an immobilized protein as a function of time based on refractive index changes.
# (§2) For each of the PSD-95 PDZ domains, we determined the K d and the stability of the complexes for selected GPCR C-tail peptides. The residence time τ ( = 1/k d) was used as a convenient measure of the stability of the complexes. […] The K d determined from the steady-state responses of a range of C-tail peptide concentrations (Figure 2B and Table S4) correlated well with the K i values obtained by FP (Figure S1).
# (§3) A Biacore X100 (GE Healthcare) SPR instrument equilibrated to 25.0°C and equipped with a Sensor Chip CM5 (for PDZ1 and PDZ2) or CM4 (for PDZ3) (GE Healthcare) was used for the SPR measurements. The running buffer was HBS-EP+ (10 mM HEPES pH 7.4, 150 mM NaCl, 3 mM EDTA, 0.05% Surfactant P-20 (GE Healthcare)).
# PDZ domains were immobilized by amine coupling at a flow rate of 5 µl/min on a surface activated by a 7 min injection of a 1∶1 mixture of 0.4 M 1-ethyl-3-(3-dimethylaminopropyl) carbodiimide (EDC) and 0.1 M N-hydroxysuccinimide (NHS). The remaining active groups were deactivated by a 7 min injection of 1 M ethanolamine HCl pH 8.5. 750 RU PDZ1, 780 RU PDZ2, and 410 RU PDZ3 were immobilized.
# GPCR C-tail peptide samples were injected in increasing concentrations for 1 min with 1 min dissociation time at 30 µl/min. Reproducibility was tested by injecting the 20 µM sample again after the highest concentration sample. The binding curves were corrected by subtraction of buffer blanks and the response from a reference surface that was activated with EDC and NHS and deactivated with ethanolamine like the surface with immobilized PDZ domain. For peptides with a cysteine, 1 mM dithiothreitol (DTT) was added to the samples. Steady-state response curves were plotted from the responses 10 s before injection end. The K d was determined by fitting steady-state response curves to a 1∶1 binding model with a linear component to corrrect for low affinity binding, probably resulting from the immobilization: Y = Ymax × X/(X+K d)+B × X.
# PSD-95 PDZ3 = biological target: T3, PSD-95 PDZ3 (Homo sapiens, UniProt P78352); experiment: FP competition assay, PSD-95 PDZ3 (probe Cy5-CRIPT); format: binding; details: read-out: K i PDZ3
# T3 construct: made in house; host or cells: E. coli One Shot BL21 Star (DE3)
# Protocol: We used a competition set-up, where a constant concentration of isolated PSD-95 PDZ domain and a labeled reference ligand was titrated with unlabeled peptides from the GPCR C-tail library, typically within a 1–512 µM concentration range, and the resulting curves were fitted to obtain the IC50, which was used to calculate the K i (Figure 1). Three Cy5-labeled peptides with well-documented interactions with PSD-95 were used as reference ligands for the competition assay: Cy5-KIF1Bα was used for PDZ1 [20], Cy5-GluN2B (formerly known as NR2B) was used for PDZ2 and PDZ1-2 [21], and Cy5-CRIPT was used for PDZ3 [22] (Table S1). Competition with unlabeled versions of the reference ligands was used to validate the FP assay by comparison with the literature (Table S2).
# FP measurements were performed in black, flat bottom 384-well NBS microplates (Corning) on a Synergy H4 microplatereader (BioTek Instruments) equipped with a 620/40 nm excitation filter, a 680/30 nm emission filter, and a 660 nm dichroic mirror. Polarization values were corrected with blank samples and samples with fluorescent probe alone. At least 10 data points were measured for each curve, and each data point was measured in triplicate. 25 nM Cy5-labeled probe was used for each assay: Cy5-KIF1Bα for PDZ1, Cy5-GluN2B for PDZ2 and PDZ1-2, and Cy5-CRIPT for PDZ3. All FP measurements were performed in a buffer containing 10 mM HEPES pH 7.4, 150 mM NaCl, and 1% BSA and incubated at least 15 min at room temperature before reading. The signal was stable for more than an hour, showing that the reaction was at equilibrium.
# Saturation binding curves were used to determine the functionality of the PDZ domains by comparison with literature values and to calculate K i values from competition curves. Saturation binding curves were performed by mixing probe with a twofold dilution series of PDZ protein in a total volume of 30 µl. The K d was determined by fitting to a 1∶1 binding model: Y = Ymax × X/(X+K d).
# For the competition binding curves, probe was mixed with a constant concentration of PDZ protein corresponding to the K d and a twofold dilution series of unlabeled peptide in a total volume of 30 µl. The baseline was determined using a sample containing only probe. The IC50 was determined by fitting to a 1∶1 binding model: Y = Ymax − Ymax × X/(X+IC50). The K i was calculated from the IC50 and from the K d for the interaction between the PDZ protein and the probe as described previously.
# PSD-95 PDZ1 [3] = biological target: T2, PSD-95 PDZ1; experiment: FP competition assay, PSD-95 PDZ1 (probe Cy5-KIF1Bα); format: binding; details: 25 nM Cy5-KIF1Bα, 10 mM HEPES pH 7.4, 150 mM NaCl, 1% BSA, room temperature, read-out: K i PDZ1
# Protocol: as §4, §5
# PSD-95 PDZ2 [4] = biological target: T1, PSD-95 PDZ2; experiment: SPR steady-state binding to immobilized PSD-95 PDZ2
# Description: as §1, §2
# as §3, with “Healthcare)). […]” for “Healthcare)).”
# GPCR C-tail peptide samples were injected in increasing concentrations for 1 min with 1 min dissociation time at 30 µl/min. […] The K d was determined by fitting steady-state response curves to a 1∶1 binding model with a linear component to corrrect for low affinity binding, probably resulting from the immobilization: Y = Ymax × X/(X+K d)+B × X.
# [5] = mean Ki ± SEM from two or more independent experiments
# [6] = at least 15 min, Ki ± fitting error
Ki (PSD-95 PDZ2 [1]),Kd (PSD-95 PDZ1 [2]),Ki (PSD-95 PDZ3),Ki (PSD-95 PDZ1 [3]; [5]),Kd (PSD-95 PDZ2 [4]),Ki (PSD-95 PDZ1 [3]; [6]),SMILES
26 ± 0.4 µM,160 ± 12 µM,370 ± 40 µM,100 ± 0.1 µM,–,–,CC[C@H](C)[C@H](NC(=O)[C@H](CCCNC(=N)N)NC(=O)[C@H](CCC(=O)O)NC(=O)[C@H](CO)NC(=O)[C@@H](NC(=O)[C@@H](NC(=O)[C@H](CO)NC(=O)[C@H](CCCNC(=N)N)NC(=O)[C@H](CC(=O)O)NC(=O)[C@H](CC(=O)O)NC(=O)[C@@H](N)Cc1ccc(O)cc1)C(C)C)C(C)C)C(=O)N[C@@H](CO)C(=O)N[C@@H](CO)C(=O)N[C@H](C(=O)O)C(C)C [5-HTR2C] (H-YDDRSVVSERISSV-OH)
29 ± 1.9 µM,120 ± 3.8 µM,790 ± 93 µM,63 ± 6.3 µM,–,–,CC[C@H](C)[C@H](NC(=O)[C@H](CC(=O)O)NC(=O)[C@H](CCC(N)=O)NC(=O)[C@H](CCCNC(=N)N)NC(=O)[C@H](CC(=O)O)NC(=O)[C@H](CC(=O)O)NC(=O)[C@@H](N)Cc1ccc(O)cc1)C(=O)N[C@H](C(=O)N[C@@H](CC(=O)O)C(=O)N[C@@H](CC(C)C)C(=O)N[C@@H](CCC(N)=O)C(=O)N[C@H](C(=O)N[C@@H](CCC(=O)O)C(=O)N[C@H](C(=O)O)C(C)C)[C@@H](C)O)[C@@H](C)CC [BAI1] (H-YDDRQDIIDLQTEV-OH)
28 ± 2 µM,–,200 ± 34 µM,50 ± 3.2 µM,76 ± 1.5 µM,–,CC[C@H](C)[C@H](NC(=O)[C@H](CCCNC(=N)N)NC(=O)[C@H](CO)NC(=O)[C@@H](NC(=O)[C@H](CS)NC(=O)[C@@H](NC(=O)CNC(=O)[C@H](CCCNC(=N)N)NC(=O)[C@H](CC(=O)O)NC(=O)[C@H](CC(=O)O)NC(=O)[C@@H](N)Cc1ccc(O)cc1)[C@@H](C)O)[C@@H](C)O)C(=O)N[C@H](C(=O)N[C@H](C(=O)N[C@@H](CC(C)C)C(=O)O)[C@@H](C)O)[C@@H](C)O [SSTR1 Human] (H-YDDRGTCTSRITTL-OH)
90 ± 14 µM,270 ± 9.1 µM,> 1000 µM,–,–,270 ± 35 µM,CC[C@H](C)[C@H](NC(=O)[C@H](CCCNC(=N)N)NC(=O)[C@H](CO)NC(=O)[C@H](C)NC(=O)[C@H](CS)NC(=O)[C@@H](NC(=O)CNC(=O)[C@H](CCCNC(=N)N)NC(=O)[C@H](CC(=O)O)NC(=O)[C@H](CC(=O)O)NC(=O)[C@@H](N)Cc1ccc(O)cc1)[C@@H](C)O)C(=O)N[C@@H](CO)C(=O)N[C@H](C(=O)N[C@@H](CC(C)C)C(=O)O)[C@@H](C)O [SSTR1 Mouse] (H-YDDRGTCASRISTL-OH)
450 ± 58 µM,–,600 ± 67 µM,–,–,750 ± 80 µM,CC[C@H](C)[C@H](NC(=O)[C@H](CCCNC(=N)N)NC(=O)[C@H](CCCNC(=N)N)NC(=O)[C@H](CC(=O)O)NC(=O)[C@H](CC(=O)O)NC(=O)[C@@H](N)Cc1ccc(O)cc1)C(=O)N1CCC[C@H]1C(=O)N[C@@H](CC(C)C)C(=O)N[C@H](C(=O)N[C@@H](CCCNC(=N)N)C(=O)N[C@H](C(=O)N[C@H](C(=O)N[C@H](C(=O)N[C@@H](Cc1ccccc1)C(=O)O)[C@@H](C)O)[C@@H](C)O)[C@@H](C)O)[C@@H](C)O [SSTR4 Human] (H-YDDRRIPLTRTTTF-OH)
